# Like-named read-outs stand apart in the source and are kept apart here.
# Assays:
# Assay type in all cases: cell-based
# [1] = tested on: MCF-7 cells (negative control); assay: MCF-7 Stable Cell Line Viability (UbC HA-ER-α series); details: Receptor None (MCF-7 negative control); for EC50: Homo sapiens, MCF7, read-out: Potency (EC50; nM)
# Description: (§1) MCF-7 Mutant ER-α Stable Cell Line Generation: MCF-7 cells stably expressing wild-type or ER-α mutants were generated by subcloning ESR1 wild-type and mutant cDNAs containing an amino terminal hemagglutinin tag into pCDH-EF1-MCS-(PGK-Puro) (referred to as EF1 HA-ER-α) and pCDH-UbC-MCS-EF1-Hygro (referred to as UbC HA-ER-α) (System Biosciences). The resulting plasmids, in addition to an empty vector negative control, were subsequently cotransfected into HEK293T cells with the pPACKH1 packaging plasmid mix (System Biosciences) according to the manufacturer's protocol. Four days post transfection lentiviral particles were purified from the cell medium, tiered and stored at −80° C. MCF-7 cells were transduced with the purified viral particles and stable cell lines were selected by growth in RPMI containing 10% FBS plus 1 μG/mL puromycin or 200 μG/mL hygromycin for pCDH-EF1-MCS-(PGK-Puro) and pCDH-UbC-MCS-EF1-Hygro, respectively.
# (§2) MCF-7 Stable Cell Line Viability: MCF-7 cells were enumerated with a hemacytometer adjusted to a concentration of 40,000 cells per mL in Phenol Free RPMI containing 10% CSS with NEAA and Sodium Pyruvate. 16 microliters of the cell suspension was added to each well of a 384 well tissue culture treated white clear bottom polystyrene plate (Corning) using a Matrix 16 channel electronic pipette. The cells were incubated overnight to allow the cells to adhere. The following day, 16 microliters of Phenol Free RPMI containing 10% CSS with NEAA and Sodium Pyruvate was added to the wells of one plate, followed by 16 μL of CellTiter-Glo (Promega, Madison Wis.) luminescent cell viability reagent using a Matrix 16 channel electronic pipette. […] The “average” of the relative luminescence units (RLUs) of the wells are considered to be the baseline value at time=zero. In addition, a 10 point, 1:5 serial dilution in DMSO (Sigma-Aldrich) was performed using Matrix 12 channel electronic pipette, including DMSO only as […]. 4 μL of each dilution was then added to 196 μL of RPMI containing 10% CSS with NEAA and Sodium Pyruvate. 16 μL of medium containing compound was added to the cells at a final concentration ranging from 10 μM to 5 pM. Compound dilution in media and subsequent addition to cells were carried out using Matrix 12 channel electronic pipettes. After 5 day compound exposure, 16 μL of CellTiter-Glo (Promega, Madison Wis.) luminescent cell viability reagent was added to the cells using a Matrix 16 channel electronic pipette. CellTiter-Glo added to 32 μL of medium without cells was used to obtain a background value. […] The relative luminescence units (RLUs) of each well were measured, and relative proliferation (fold) of each sample was determined as follows: (RLU sample−RLU background)/(RLU at T=0)=relative proliferation
# (§3) The UbC promoter is reported by the manufacturer (System Biosciences) to express low to moderate RNA levels while the EF1 promoter expresses high levels (System Biosciences).
# [2] = tested on: MCF-7 cells stably expressing UbC HA-ER-α wild-type; assay: as above; details: UbC HA-ER-α Wild-type; for EC50: Homo sapiens, MCF7, read-out: Potency (EC50; nM); for Percent inhibition compared to vehicle: 5-Day Incubation; for Efficacy (Emax): Day 5 relative to Day 0
# Description: as §1, §2, §3
# [3] = tested on: MCF-7 cells stably expressing EF1 HA-ER-α L536P; assay: cells; details: EF1 HA-ER-α L536P; for Percent inhibition compared to vehicle: 5-Day Incubation; for Efficacy (Emax): Day 5 relative to Day 0; for EC50: Homo sapiens, MCF7, read-out: Potency (EC50; nM)
# Description: as §1, §2, §3
# [4] = tested on: MCF-7 cells stably expressing EF1 HA-ER-α L536R; assay: cells; details: EF1 HA-ER-α L536R; for Percent inhibition compared to vehicle: 5-Day Incubation; for Efficacy (Emax): Day 5 relative to Day 0; for EC50: Homo sapiens, MCF7, read-out: Potency (EC50; nM)
# Description: as §1, §2, §3
# [5] = tested on: MCF-7 cells stably expressing EF1 HA-ER-α Y537N; assay: cells; details: EF1 HA-ER-α Y537N; for Percent inhibition compared to vehicle: 5-Day Incubation; for Efficacy (Emax): Day 5 relative to Day 0; for EC50: Homo sapiens, MCF7, read-out: Potency (EC50; nM)
# Description: as §1, §2, §3
# [6] = tested on: MCF-7 cells stably expressing UbC HA-ER-α L536P; assay: cells; details: for EC50: Homo sapiens, MCF7, read-out: Potency (EC50; nM)
# Description: as §1, §2, §3
# [7] = tested on: MCF-7 cells stably expressing UbC HA-ER-α L536R; assay: cells; details: UbC HA-ER-α L536R; for EC50: Homo sapiens, MCF7, read-out: Potency (EC50; nM); for Percent inhibition compared to vehicle: 5-Day Incubation; for Efficacy (Emax): Day 5 relative to Day 0
# Description: as §1, §2, §3
# [8] = tested on: MCF-7 cells stably expressing UbC HA-ER-α Y537N; assay: cells; details: UbC HA-ER-α Y537N; for EC50: Homo sapiens, MCF7, read-out: Potency (EC50; nM); for Percent inhibition compared to vehicle: 5-Day Incubation; for Efficacy (Emax): Day 5 relative to Day 0
# Description: as §1, §2, §3
# [9] = Agonist Mode, −E2, 5-Day Incubation
# [10] = Agonist Mode, −E2, Day 5 relative to Day 0
# [11] = Antagonist Mode, +E2, 5-Day Incubation
# [12] = Antagonist Mode, +E2, Day 5 relative to Day 0
# [13] = Antagonist Mode, −E2 (Table 27)
structure (smiles),measurement,setting,value
"CC1=C(c2cccc(O)c2)[C@H](c2ccc(OCCN3CC(CF)C3)cc2)Oc2ccc(O)cc21 [Compound 4-23, (S)-2-(4-(2-(3-(fluoromethyl)azetidin-1-yl)ethoxy)phenyl)-3-(3-hydroxyphenyl)-4-methyl-2H-chromen-6-ol]",EC50,"[1]; Agonist Mode, −E2",0.227 ± 0.21 nM
same,EC50,"[1]; Antagonist Mode, +E2",0.378 ± 0.216 nM
same,Percent inhibition compared to vehicle,[1]; [9],31%
same,Efficacy (Emax),[1]; [10],1.20 ± 0.27
same,Percent inhibition compared to vehicle,[1]; [11],66%
same,Efficacy (Emax),[1]; [12],1.08 ± 0.04
same,EC50,"[2]; Agonist Mode, −E2",4.04 ± 8.01 nM
same,EC50,"[2]; Antagonist Mode, +E2",0.599 ± 0.3 nM
same,Percent inhibition compared to vehicle,"[2]; Agonist Mode, −E2",39%
same,Efficacy (Emax),"[2]; Agonist Mode, −E2",1.13 ± 0.13
same,Percent inhibition compared to vehicle,"[2]; Antagonist Mode, +E2",76%
same,Efficacy (Emax),"[2]; Antagonist Mode, +E2",1.20 ± 0.10
same,Percent inhibition compared to vehicle,"[3]; Agonist Mode, −E2",62%
same,Efficacy (Emax),"[3]; Agonist Mode, −E2",3.11 ± 0.40
same,Percent inhibition compared to vehicle,"[3]; Antagonist Mode, +E2",64%
same,Efficacy (Emax),"[3]; Antagonist Mode, +E2",3.25 ± 0.07
same,EC50,"[3]; Antagonist Mode, +E2",15.1 ± 13.6 nM
same,EC50,[3]; [13],4.78 ± 4.67 nM
same,Percent inhibition compared to vehicle,"[4]; Agonist Mode, −E2",57%
same,Efficacy (Emax),"[4]; Agonist Mode, −E2",2.94 ± 0.34
same,Percent inhibition compared to vehicle,"[4]; Antagonist Mode, +E2",60%
same,Efficacy (Emax),"[4]; Antagonist Mode, +E2",2.76 ± 0.50
same,EC50,"[4]; Antagonist Mode, +E2",53.3 ± 65.8 nM
same,EC50,[4]; [13],11.3 ± 9.22 nM
same,Percent inhibition compared to vehicle,"[5]; Agonist Mode, −E2",88%
same,Efficacy (Emax),"[5]; Agonist Mode, −E2",0.74 ± 0.01
same,Percent inhibition compared to vehicle,"[5]; Antagonist Mode, +E2",87%
same,Efficacy (Emax),"[5]; Antagonist Mode, +E2",0.70 ± 0.01
same,EC50,"[5]; Antagonist Mode, +E2",45.5 ± 51.7 nM
same,EC50,[5]; [13],16 ± 17.6 nM
same,Percent inhibition compared to vehicle,[6]; [9],49%
same,Efficacy (Emax),[6]; [10],1.62 ± 0.13
same,Percent inhibition compared to vehicle,[6]; [11],69%
same,Efficacy (Emax),[6]; [12],1.87 ± 0.27
same,EC50,"[6]; Agonist Mode, −E2",0.231 ± 0.104 nM
same,EC50,"[6]; Antagonist Mode, +E2",2.09 ± 0.425 nM
same,EC50,"[7]; Agonist Mode, −E2",0.334 ± 0.27 nM
same,EC50,"[7]; Antagonist Mode, +E2",2.58 ± 0.181 nM
same,Percent inhibition compared to vehicle,"[7]; Agonist Mode, −E2",53%
same,Efficacy (Emax),"[7]; Agonist Mode, −E2",1.80 ± 0.26
same,Percent inhibition compared to vehicle,"[7]; Antagonist Mode, +E2",71%
same,Efficacy (Emax),"[7]; Antagonist Mode, +E2",1.73 ± 0.31
same,EC50,"[8]; Agonist Mode, −E2",0.446 ± 0.219 nM
same,EC50,"[8]; Antagonist Mode, +E2",2.64 ± 1.86 nM
same,Percent inhibition compared to vehicle,"[8]; Agonist Mode, −E2",62%
same,Efficacy (Emax),"[8]; Agonist Mode, −E2",1.63 ± 0.17
same,Percent inhibition compared to vehicle,"[8]; Antagonist Mode, +E2",74%
same,Efficacy (Emax),"[8]; Antagonist Mode, +E2",1.70 ± 0.03

# — patent US9855270B2, “Methods and compositions for modulating estrogen receptor mutants” (priority 2014, dated 2018)
